Results on 1 compound are retold here after patent US11993640B2, “Treating inflammatory lung disease” (United States Government as represented by the Department …, priority 2019, dated 2024).

One test has as its system HCC1806 cells. The experiment in a line: In vitro cell viability, breast cancer HCC1806. The format is cell-based, human. The following applies: 5 μM, 72 h. As to the method: The inhibitory effects of the various synthesized GHRH antagonists were tested in cell proliferation assays in various human cancer cell lines including stomach cancer (KATOIII, N87), colon cancer (HT-29), urothelial cancer (J82, RT4), pancreatic cancer (PANC-1, CFPAC-1), prostatic cancer (PC3), breast cancer (MX-1, HCC1806), ovarian cancer (SK-OV-3, OVCAR-3) and lung cancer (HCC827, H460).
Cell culture. Human cancer cell lines including pancreatic (PANC-1 and CFPAC-1), lung (HCC827 and H460), stomach (NCI-N87 and KATOIII), urothelial (J82, RT4), prostatic (PC3), breast (MX-1 and HCC 1806), colorectal (HT-29), and ovarian (SK-OV-3 and OVCAR-3) were obtained from the American Type Culture Collection (ATCC) and cultured at 37° C. in a humidified 95% air/5% CO2 atmosphere in the medium recommended by ATCC.
In vitro cell viability. Cell viability was analyzed as follows: cancer cells including pancreatic (PANC-1 and CFPAC-1), lung (HCC827 and H460), stomach (NCI-N87 and KATOIII), urothelial (J82, RT4), prostatic (PC3) and breast (MX-1 and HCC 1806), colorectal (HT-29) and ovarian (SK-OV-3 and OVCAR-3) were grown on 96 well plates to ˜60% confluence, the cells were starved for 24 h in culture medium containing 0.5% FBS. Cells were then treated with GHRH antagonists MIA602 AVR compounds at concentrations of 1, 2.5 or 5 μM, or vehicle (0.1% DMSO) in quintuplicates for 72 hours. The medium was replaced every 48 hours. Cell viability was measured using CellTiter 96 aqueous one solution kit (Promega). Inhibitory effects of tested AVR compounds in comparison to that of MIA602 are presented as inhibitory potency.
Inhibitory effects of selected AVR compounds in comparison to that of MIA602 are presented as inhibitory potency (e.g., percentage of inhibition). […] The cell lines tested including lung cancer HCC827 (FIG. 2A), pancreatic cancer CFPAC-1 (FIG. 2B), stomach cancer N87 (FIG. 2C), colon cancer HT-29 (FIG. 2D), breast cancers MX-1 and HCC1806 (FIGS. 2E, F). Based on the results of cell proliferation assay after cancer cells were treated with antagonist at concentration of 5 μM for 72H, the relative inhibitory potency of AVR antagonists in comparison to MIA-602 is summarized in Table 3 A and B. Over 60 AVR compounds were tested in 12 cancer cell lines.
Based on the results of cell proliferation assay after cancer cells were treated with antagonist at concentration of 5 µM for 72H, * at concentration of 2 µM for 72 H.

The test system of a further test is HT-29 xenograft. Description: Xenograft tumor growth in nude mice, colon cancer HT-29. The format is in vivo. The following applies: Panel G, 6 weeks, 5 μg/day s.c. As to the method: (§1) The peptides' activity was compared with GHRH antagonist MIA-602. All statistical analyzses were performed from comparing GHRA antagonists to non-treated tumor (control).
(§2) Peptides and chemicals. GHRH antagonists MIA-602 and AVR-GHRH antagonists (see Table 2 above) were synthesized by solid phase methods and purified by HPLC. The peptides were dissolved in DMSO and further diluted in 10% 1, 2-propanediol. The final concentration of peptides was 50 µg/ml in 10% 1, 2-propanediol containing 0.1% of DMSO.
(§3) Cell culture. Human cancer cell lines including pancreatic (PANC-1 and CFPAC-1), lung (HCC827 and H460), stomach (NCI-N87), prostate (PC3), brest (MX-1 and HCC-1806), colorectal (HT-29), and ovarian (SK-OV-3 and OVCAR-3) were obtained from the American Type Culture Collection (ATCC) and cultured at 37° C. in a humidified 95% air/5% CO2 atmosphere in the medium recommended by ATCC.
(§4) Xenograft models of human cancers in nude mice. Female athymic (NCr nu/nu) nude mice, 5-to 6-weeks-old, obtained from the Envigo labs (Tampa, FL), were housed in laminar airflow cabinets under pathogen-free conditions with a 12-h light/12-h dark schedule, and were fed autoclaved standard chow and water. To generate mice with xenografted tumors, tumor xenografts were initiated by subcutaneous (s.c.) injection of […] human cancer cells into female nude mice. After about 4 weeks the resulting tumors were dissected and collected after removing necrosis tissues. The tumors were then cut into particles with size of ˜3 mm3 and transplanted s.c. by trocar needle into experimental animals. When tumors grew to the size of 50-60 mm3 (by volume), mice were randomized into groups and treated daily for 4-8 weeks by subcutaneous administration of 5 μg of GHRH antagonists MIA-602 or AVR-compounds (2-10 μg as indicated), or vehicle solutions (0.1% DMSO in 10% 1, 2-propanediol) respectively. Tumor sizes were measured weekly.
(§5) Statistical analysis. One-way ANOVA followed by Bonferroni comparison were performed. Data are expressed as Mean±SEM. To determine statistical significance between animal groups, two-tailed Student's t-test was conducted. Differences were considered significant when p<0.05.
(§6) Results. […] FIG. 1A-N represents in vivo inhibition of tumor growth during the treatment with GHRH antagonist MIA-602 and selected AVR antagonists in nude mice xenografted with various human tumors including pancreatic cancer PANC-1 (FIG. 1A) and CFPAC-1 (FIG. 1I); lung cancer HCC827 (FIGS. 1B, C) and H460 (FIG. 1H); stomach cancer N87 (FIGS. 1D-F); colon cancer HT-29 (FIG. 1G); breast cancer MX-1 and HCC-1806 (FIGS. 1J, K); ovarian cancer SK-OV-3 and OVACAR-3 (FIGS. 1L, M) and prostate cancer PC3 (FIG. 1N). See also Table 5.

The test system of a further test is SK-OV-3 xenograft. Description: Xenograft tumor growth in nude mice, ovarian cancer SK-OV-3. The format is in vivo. As to conditions: Panel L, 7 weeks, 5 μg/day s.c. As to the method: as §1, §2, §3, §4, §5, §6

Non-standard residues stand in square brackets, D forms with d. Residues, ends and D or L forms follow the SMILES beside them. *: point of attachment. Phe(F5) = N[C@@H](Cc1c(F)c(F)c(F)c(F)c1F)C(=O)O; hArg = N=C(N)NCCCC[C@H](N)C(=O)O; 12Ado = NCCCCCCCCCCCC(=O)O; Nle = CCCC[C@H](N)C(=O)O; Orn = NCCC[C@H](N)C(=O)O; Abu = CC[C@H](N)C(=O)O; PhAc = O=C(Cc1ccccc1)*

On to `CCCC[C@H](NC(=O)[C@@H](NC(=O)[C@H](CC(=O)O)NC(=O)[C@H](CCC(N)=O)NC(=O)[C@H](CC(C)C)NC(=O)[C@H](CC(C)C)NC(=O)[C@H](CCCN)NC(=O)[C@H](Cc1c[nH]cn1)NC(=O)[C@H](C)NC(=O)[C@H](CO)NC(=O)[C@H](CC(C)C)NC(=O)[C@H](CCC(N)=O)NC(=O)[C@H](CC)NC(=O)[C@H](CC(C)C)NC(=O)[C@@H](NC(=O)[C@H](CCCN)NC(=O)[C@H](Cc1c[nH]cn1)NC(=O)[C@H](Cc1ccc(OC)cc1)NC(=O)[C@H](CCCCNC(=N)N)NC(=O)[C@H](C)NC(=O)[C@@H](NC(=O)[C@H](Cc1c(F)c(F)c(F)c(F)c1F)NC(=O)[C@@H](NC(=O)[C@H](C)NC(=O)[C@H](CC(=O)O)NC(=O)[C@@H](CCCNC(=N)N)NC(=O)[C@H](Cc1ccc(O)cc1)NC(=O)CCCCCCCCCCCNC(=O)Cc1ccccc1)[C@@H](C)CC)[C@@H](C)O)C(C)C)[C@@H](C)CC)C(=O)N[C@H](CCCNC(=N)N)C(=O)N[C@@H](CCCCNC(=N)N)C(N)=O` [MIA-602, PhAC-Ada, Tyr D-Arg, Asp, Ala, Ile, 5FPhe, Thr, Ala, Har, Tyr(Me), His, Orn, Val, Leu, Abu, Gin, Leu, Ser, Ala, His, Orn, Leu, Leu, Gin, Asp, Ile, Nle, D-Arg, Har NH2, reference compound] ({PhAc-12Ado}-Y[dR]DAI[Phe(F5)]TA[hArg]Y(Me)H[Orn]VL[Abu]QLSAH[Orn]LLQDI[Nle][dR][hArg]-NH2), for which, in the test on HCC1806 cells (Table 3B), the “In vitro relative inhibitory potency in comparison to MIA-602, HCC-1806” value is 1. Further, in the test on HCC1806 cells (relative to MIA602 = 1, Table 3A), the “Relative inhibitory potency, Breast HCC1806” value was 1. Further, the figures for the “Tumor Growth %” value in the test with HT-29 xenograft and in the test with SK-OV-3 xenograft were 582.10% and 810.1%, respectively. In addition, the “% Inhibition” value in the test with SK-OV-3 xenograft (vs control) is listed as 38.0%.

As a reminder, the % Inhibition is the percentage by which the read-out fell short of the control. The low end stands for little suppression, the high end for strong suppression.
